These results are taken from ChEMBL document CHEMBL3045524, “Development of a new acaricide, cyflumetofen” (J Pestic Sci, 2012).

In brackets after ≈: the same amount, converted by molar mass.

Series [1] deals with Tetranychus urticae. Kind of series: Acaricidal activity against Tetranychus urticae (two-spotted spider mite) larvae. The class given is functional.
The nature of series [2]: Solubility of the compound in water. The class given is physicochemical.
The subject of the next series is Panonychus citri. Put plainly: Acaricidal activity against Panonychus citri at developmental stages. The class given is functional.
The next series relates to Tetranychus kanzawai. Put plainly: Acaricidal activity against Tetranychus kanzawai at developmental stages. The class given is functional.
Series [3] in a line: Octanol-water partition co-efficient, log P of the compound. The class given is physicochemical.
Series [4] concerns Tetranychus urticae. Kind of series: Acaricidal activity against Tetranychus urticae (two-spotted spider mite) adult. The series is classed as functional.

Regarding `COCCOC(=O)C(C#N)(C(=O)c1ccccc1C(F)(F)F)c1ccc(C(C)(C)C)cc1` (racemic) [CYFLUMETOFEN], the LC50 is 0.9 µg/mL (≈ 2.01 µM) in the series with Tetranychus urticae [1], under 5 µg/mL in the series with Panonychus citri, under 5 µg/mL in the series on Tetranychus kanzawai and 4.8 µg/mL (≈ 10.7 µM) in the series on Tetranychus urticae [4]. Further, the solubility in series [2] is 0.0281 µg/mL (≈ 0.0628 µM). The compound also registered a logP in series [3] of 4.3.
